Experimental data as given in ChEMBL document CHEMBL2406975, “β-Secretase Inhibitors for the Treatment of Alzheimer's Disease and Down's Syndrome” (ACS Med Chem Lett, 2013).

Biological target: Beta-secretase 1 (Homo sapiens, UniProt P56817)
Experiment: Inhibition of BACE1 in human SH-SY5Y cells assessed as release of sAPPbeta after 17 hrs
Type: cell-based

Chain of Beta-secretase 1 (P56817 whole entry): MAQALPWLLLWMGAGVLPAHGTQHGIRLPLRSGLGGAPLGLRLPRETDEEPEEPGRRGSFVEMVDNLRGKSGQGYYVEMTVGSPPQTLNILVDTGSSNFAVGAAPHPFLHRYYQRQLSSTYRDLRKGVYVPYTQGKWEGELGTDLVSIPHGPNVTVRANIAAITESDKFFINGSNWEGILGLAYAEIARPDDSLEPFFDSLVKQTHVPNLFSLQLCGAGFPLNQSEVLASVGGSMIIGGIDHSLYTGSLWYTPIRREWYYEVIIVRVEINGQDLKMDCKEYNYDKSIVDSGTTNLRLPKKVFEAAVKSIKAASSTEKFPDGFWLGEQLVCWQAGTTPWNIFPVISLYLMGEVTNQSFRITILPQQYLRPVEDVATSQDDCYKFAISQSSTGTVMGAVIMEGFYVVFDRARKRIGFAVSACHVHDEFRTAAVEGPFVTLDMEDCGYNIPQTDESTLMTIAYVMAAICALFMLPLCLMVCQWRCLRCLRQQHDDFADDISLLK

Row | IC50 [nM] | SMILES
1 | 1.1 | CC#Cc1cncc(-c2ccc3c(c2)C2(C=C(F)C(N)=N2)[C@]2(CC[C@@H](OC)CC2)C3)c1 (some centres undefined)
2 | 168 | CC1(C)Cc2ccc(-c3cncnc3)cc2C12C=C(F)C(N)=N2 (centres undefined)
3 | 1.1 | CO[C@H]1CC[C@]2(CC1)Cc1ccc(-c3cncnc3)cc1C21C=C(F)C(N)=N1 (some centres undefined)
4 | 0.031 | CC#Cc1cncc(-c2ccc3c(c2)C2(C=C(F)C(N)=N2)[C@]2(CC[C@H](OC)CC2)C3)c1 (some centres undefined)
